The values that follow come from ChEMBL document CHEMBL1126797 (J Med Chem, 1993).

Structures are written as SMILES.

Data set [1] has as its target T1, DNA topoisomerase 1 (Homo sapiens, UniProt P11387).
T1 sequence (P11387 whole entry): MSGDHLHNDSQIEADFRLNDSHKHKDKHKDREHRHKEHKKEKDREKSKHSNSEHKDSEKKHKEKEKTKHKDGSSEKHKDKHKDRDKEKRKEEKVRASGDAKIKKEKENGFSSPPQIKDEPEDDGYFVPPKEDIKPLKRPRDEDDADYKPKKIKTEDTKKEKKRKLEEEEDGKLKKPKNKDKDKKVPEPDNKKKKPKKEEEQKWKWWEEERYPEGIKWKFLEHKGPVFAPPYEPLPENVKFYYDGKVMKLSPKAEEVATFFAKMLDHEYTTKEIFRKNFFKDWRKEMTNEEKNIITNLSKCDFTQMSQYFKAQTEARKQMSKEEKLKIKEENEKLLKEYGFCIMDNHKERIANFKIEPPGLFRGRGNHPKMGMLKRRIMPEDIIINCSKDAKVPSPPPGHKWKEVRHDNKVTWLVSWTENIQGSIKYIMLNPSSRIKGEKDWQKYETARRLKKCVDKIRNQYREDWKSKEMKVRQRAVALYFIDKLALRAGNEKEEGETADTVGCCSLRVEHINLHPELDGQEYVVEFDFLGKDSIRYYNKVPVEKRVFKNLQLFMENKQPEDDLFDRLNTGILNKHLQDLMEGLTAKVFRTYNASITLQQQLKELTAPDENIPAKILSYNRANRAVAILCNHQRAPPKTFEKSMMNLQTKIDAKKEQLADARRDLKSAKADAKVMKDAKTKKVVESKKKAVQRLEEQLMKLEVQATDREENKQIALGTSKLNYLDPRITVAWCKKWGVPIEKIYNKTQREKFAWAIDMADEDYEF
The experiment in a line: Inhibition of Topoisomerase I by cleavage complex formation in human HL-60 cells. The format is cell-based.

Data set [2] concerns Mus musculus. The experiment in a line: Relative survival in RAW117-H10 cells implanted mice in comparison to control at dose of 6 mg/kg. In kind it is functional.
A short description of data set [3]: Number of metastases in K1735-M2 murine melanoma cells after subcutaneous administration on days1,4,6,8 at dose of 6 mg/kg. In kind it is functional, Mus musculus.
Data set [4] has as its system Mus musculus. The experiment in a line: Relative survival in L1210 lymphoid leukemic mice after subcutaneous administration on days1,4,6,8 at dose of 6 mg/kg. The format is functional.
Data set [5] deals with Mus musculus. Description: Highest active dose in L1210 lymphoid leukemic mice at range of 3.63-15.5 mg/kg. The format is functional.
The species named for data set [6] is Mus musculus. Description: Percent median survival time of treated leukemic mice compared to control. The format is functional.
For data set [7], the species on record is Mus musculus. The experiment in a line: Number of L1210 lymphoid leukemic mice cured out of […]. The format is functional.
The test system of data set [8] is L1210. Description: Log of initial tumor cell population minus log of tumor cell population at end of treatment in L1210 lymphoid leukemic mice. In kind it is functional, Mus musculus.
For data set [9], the species on record is Mus musculus. Description: Toxic dose in L1210 lymphoid leukemic mice. The format is toxicity, organism-based. The note with it: in vivo.
Data set [10] relates to Mus musculus. The experiment in a line: Highest active dose in L1210 lymphoid leukemic mice at dose of 2-4.5 mg/kg. In kind it is functional.
The subject of data set [11] is Mus musculus. Description: Highest active dose in L1210 lymphoid leukemic mice at dose range of 10-40 mg/kg. The format is functional.
Data set [12] relates to Mus musculus. The experiment in a line: Highest active dose in L1210 lymphoid leukemic mice at range of 1.25-20 mg/kg. The format is functional.
Data set [13] relates to Mus musculus. The experiment in a line: Highest active dose in L1210 lymphoid leukemic mice at range of 10-80 mg/kg. In kind it is functional.
Data set [14] deals with Mus musculus. Description: Highest active dose in L1210 lymphoid leukemic mice at dose range of 2.37-12.00 mg/kg. The format is functional.
The test system of data set [15] is Mus musculus. Description: Toxic dose in L1210 lymphoid leukemic mice at dose of 20 mg/kg after i.v. drug dosing on hours 1 and 5; NT means not toxic. The format is toxicity, organism-based. Set-up: dose 20 mg/kg, route intravenous. The note with it: in vivo, iv.
In data set [16] the test system is L1210. Description: Log of initial tumor cell population minus log of tumor cell population at end of treatment after i.v. drug dosing on hours 1 and 5. The format is functional, Mus musculus.
Data set [17] deals with Mus musculus. Description: Number of L1210 mice cured after i.v. drug dosing on hours 1 and 5. The format is functional.
Data set [18] relates to Mus musculus. The experiment in a line: Highest active dose in L1210 lymphoid leukemic mice at dose range of 2.5-20 mg/kg after i.v. drug dosing on hours 1 and 5. The format is functional.
The subject of data set [19] is Mus musculus. Description: Median survival time of treated/control L1210 leukemic mice after i.v. drug dosing on hours 1 and 5. In kind it is functional.

`CCC(O)(C(=O)[O-])c1cc2n(c(=O)c1CO)Cc1cc3c(N)c4c(cc3nc1-2)OCO4.[Na+]` (racemic) came in with an IC50 in [1] of 5500 nM. Further, the T/C in data set [2] was 1.4; in data set [4], 1.78. This compound showed a Control in data set [3] of 98%.
For the compound `CCC1(O)C(=O)OCc2c1cc1n(c2=O)Cc2cc3cc([N+](=O)[O-])ccc3nc2-1` (racemic), the Highest active dose in data set [5] stood at 7.25 mg/kg. Moreover, in data set [6], the T/C is recorded as 233%. Moreover, the Cures in data set [7] is listed as 0. In data set [8], this compound yielded a KE of 5.97. The same compound showed a Toxic dose in data set [9] of 31 mg/kg.
The compound `CC[C@@]1(O)C(=O)OCc2c1cc1n(c2=O)Cc2cc3cc(N)ccc3nc2-1` had an IC50 in data set [1] of 140 nM. The compound also showed a Highest active dose in data set [10] of 4.5 mg/kg. In data set [6], this compound came in with a T/C of 565%. For the same compound, the Cures in data set [7] was found to be 6. In addition, in [8], the KE is given as >5.99.
As for `CCC1(O)C(=O)OCc2c1cc1n(c2=O)Cc2cc3c(O)cccc3nc2-1` (racemic), the midpoint of inhibition in data set [1], the IC50, lay at 900 nM. The compound also registered a T/C in data set [6] of 134%. Moreover, the Highest active dose in [11] was 20 mg/kg. The same compound had a Cures in data set [7] of 0.
For `CCC1(O)C(=O)OCc2c1cc1n(c2=O)Cc2cc3c([N+](=O)[O-])cccc3nc2-1` (stereo not drawn), the T/C in data set [6] was found to be 348%. In data set [7], this compound returned a Cures of 5. For the same compound, in [8], the KE stood at 5.97. In data set [9], this compound yielded a Toxic dose of 40 mg/kg. In [12], this compound gave a Highest active dose of 10 mg/kg.
In [6], `CCC1(O)C(=O)OCc2c1cc1n(c2=O)Cc2cc3cc(C)ccc3nc2-1` (racemic) had a T/C of 207%. The same compound returned a Cures in data set [7] of 0. The compound further showed a KE in data set [8] of 4.66. In addition, in [13], the Highest active dose is 10 mg/kg.
The compound `CC[C@@]1(O)C(=O)OCc2c1cc1n(c2=O)Cc2cc3c(Cl)cccc3nc2-1` registered a Highest active dose in data set [14] of 12 mg/kg. Moreover, the IC50 in data set [1] came to 86 nM. The compound also came in with a T/C in data set [6] of 150%. This compound gave a Cures in data set [7] of 0. This compound came in with a KE in data set [8] of 0.
As to `CCC(O)(C(=O)[O-])c1cc2n(c(=O)c1CO)Cc1cc3cc([O-])ccc3nc1-2.[Na+].[Na+]` (stereo not drawn), the IC50 in [1] was determined as 3200 nM. In addition, the Toxic dose entry in [15] was “Non-toxic”. The KE in data set [16] amounted to 3.24. In addition, the Cures in data set [17] is 0. The same compound came in with a Highest active dose in data set [18] of 20 mg/kg. This compound also showed a T/C in data set [19] of 184%.

What is called IC50 is the concentration at which inhibition is half-maximal. Lower therefore signals inhibition by little substance.
